Experimental data reported in patent US20040175691A1, “Use of the KCNQ2 and KCNQ3 genes for the discovery of agents useful in the treatment of neurological disorders” (priority 1998, published 2004).

Columns and labels:
Type in all cases: cell-based
[1] = target: T1, elk1 (Rattus norvegicus, UniProt Q9QWS8); assay: Blockade of cloned elk1 channel in oocytes
T1 construct: expressed in transfected cells; host or cells: oocytes (Xenopus)
T1 sequence (Q9QWS8 1-1102): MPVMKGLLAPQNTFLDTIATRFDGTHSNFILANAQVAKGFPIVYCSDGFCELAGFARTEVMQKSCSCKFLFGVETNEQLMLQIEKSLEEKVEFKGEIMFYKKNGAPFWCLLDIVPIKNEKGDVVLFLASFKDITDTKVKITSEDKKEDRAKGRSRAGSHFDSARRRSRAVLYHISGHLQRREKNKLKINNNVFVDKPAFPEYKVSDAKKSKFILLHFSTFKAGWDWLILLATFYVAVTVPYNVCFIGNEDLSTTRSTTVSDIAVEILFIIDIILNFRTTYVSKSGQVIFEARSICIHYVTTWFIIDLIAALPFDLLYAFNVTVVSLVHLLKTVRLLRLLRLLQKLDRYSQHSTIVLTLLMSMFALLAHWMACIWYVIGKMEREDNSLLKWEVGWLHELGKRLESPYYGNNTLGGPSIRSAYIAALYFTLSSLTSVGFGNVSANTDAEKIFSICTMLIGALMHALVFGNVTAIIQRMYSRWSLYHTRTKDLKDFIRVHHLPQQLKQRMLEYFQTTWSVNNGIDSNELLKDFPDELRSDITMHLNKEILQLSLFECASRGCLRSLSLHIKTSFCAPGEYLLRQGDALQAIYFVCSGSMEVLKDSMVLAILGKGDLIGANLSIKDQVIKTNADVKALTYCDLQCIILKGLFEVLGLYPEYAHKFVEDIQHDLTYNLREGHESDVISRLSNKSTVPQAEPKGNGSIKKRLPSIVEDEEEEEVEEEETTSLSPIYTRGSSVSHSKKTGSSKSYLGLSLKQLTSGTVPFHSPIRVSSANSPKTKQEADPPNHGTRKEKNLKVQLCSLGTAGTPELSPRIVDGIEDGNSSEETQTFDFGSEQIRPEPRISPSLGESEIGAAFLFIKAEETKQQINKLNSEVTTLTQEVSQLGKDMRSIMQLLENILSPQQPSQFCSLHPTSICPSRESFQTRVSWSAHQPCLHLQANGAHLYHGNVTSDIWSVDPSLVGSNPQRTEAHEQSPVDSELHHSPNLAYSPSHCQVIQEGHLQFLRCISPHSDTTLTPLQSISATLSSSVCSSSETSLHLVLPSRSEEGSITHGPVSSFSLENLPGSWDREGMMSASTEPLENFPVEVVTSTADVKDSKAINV

[2] = target: KCNQ2 (Homo sapiens, UniProt O43526, DEL417-446); assay: Blockade of KCNQ2 channels expressed in Xenopus oocytes; design: Full-length KCNQ2 cDNAs were amplified from adult human brain cDNA; expressed in transfected cells; host or cells: Xenopus oocytes injected with cRNA; conditions: oocytes; mean±s.e.m.
Procedure: Method: Full-length KCNQ2 cDNAs were amplified from adult human brain cDNA using the following primers ([…], […]) with the Expand Fidelity enzyme mixture (Boehringer Mannheim, Indianapolis). […] This region is also alternatively spliced in the KCNQ2 cDNA clone described by Biervert et al. (1998). Preparation, injection of cRNA and recording from oocytes was performed at room temperature as described previously (Dixon et al. 1996). The standard extracellular recording solution contained: 82 mM NaCl, 2 mM KCl, 1.8 mM CaCl2, 1 mM MgCl2, and 5 mM Na-HEPES (pH 7.6). Data collection and analysis were performed using pClamp software (Axon Instruments, Foster City, Calif.).
IC50 values are all expressed in μM, mean±s.e.m.

[3] = target: T2, Kv1.2 (Homo sapiens, UniProt P16389); assay: Blockade of cloned Kv1.2 channel in oocytes; conditions: mean±s.e.m.
T2 construct: expressed in transfected cells; host or cells: oocytes (Xenopus)

[4] = target: T3, Kv4.3 (Homo sapiens, UniProt Q9UK17); assay: Blockade of cloned Kv4.3 channel in oocytes; conditions: mean±s.e.m.
T3 construct: expressed in transfected cells; host or cells: oocytes (Xenopus)
T3 sequence (Q9UK17 1-655): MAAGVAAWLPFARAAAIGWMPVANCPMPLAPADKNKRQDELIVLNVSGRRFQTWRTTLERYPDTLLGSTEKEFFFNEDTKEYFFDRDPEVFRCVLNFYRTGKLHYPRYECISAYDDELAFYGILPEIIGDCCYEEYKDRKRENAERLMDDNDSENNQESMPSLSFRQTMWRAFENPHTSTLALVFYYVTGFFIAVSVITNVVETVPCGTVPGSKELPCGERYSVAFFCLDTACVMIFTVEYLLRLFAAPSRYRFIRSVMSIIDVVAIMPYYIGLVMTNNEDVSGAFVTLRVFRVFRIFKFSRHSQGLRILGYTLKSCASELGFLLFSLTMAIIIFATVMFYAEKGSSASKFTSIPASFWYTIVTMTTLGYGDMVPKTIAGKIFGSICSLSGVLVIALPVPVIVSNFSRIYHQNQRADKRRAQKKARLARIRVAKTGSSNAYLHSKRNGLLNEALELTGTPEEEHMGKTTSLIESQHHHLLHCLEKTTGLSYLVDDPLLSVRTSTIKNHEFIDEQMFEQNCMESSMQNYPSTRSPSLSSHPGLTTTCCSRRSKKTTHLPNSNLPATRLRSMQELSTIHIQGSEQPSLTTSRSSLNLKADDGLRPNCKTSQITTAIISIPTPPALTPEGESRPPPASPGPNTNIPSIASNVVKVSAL

T2 sequence (P16389 whole entry): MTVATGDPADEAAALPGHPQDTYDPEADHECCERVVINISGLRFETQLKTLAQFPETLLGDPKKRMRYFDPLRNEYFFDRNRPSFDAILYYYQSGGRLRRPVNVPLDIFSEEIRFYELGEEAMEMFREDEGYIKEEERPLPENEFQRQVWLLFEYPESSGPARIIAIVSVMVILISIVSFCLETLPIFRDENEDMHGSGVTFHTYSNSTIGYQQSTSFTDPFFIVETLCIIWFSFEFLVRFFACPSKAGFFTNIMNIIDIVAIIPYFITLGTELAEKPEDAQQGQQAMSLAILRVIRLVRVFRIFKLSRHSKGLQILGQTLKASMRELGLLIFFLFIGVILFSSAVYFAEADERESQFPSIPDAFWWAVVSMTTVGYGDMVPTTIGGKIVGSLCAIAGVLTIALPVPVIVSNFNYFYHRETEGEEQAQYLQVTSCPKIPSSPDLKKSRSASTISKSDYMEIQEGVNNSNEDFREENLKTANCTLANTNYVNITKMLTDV

Row | IC50 ([1]; at +30 mV) [µM] | IC50 ([1]; at −20 mV) [µM] | IC50 ([1]; step to −10 mV, voltage dependent) [µM] | IC50 [2] [µM] | IC50 [3] [µM] | IC50 [4] [µM] | IC50 ([1]; oocytes) [µM] | SMILES
1 | 144 | 26 | 37 ± 4 | 4.8 ± 0.6 | 68 ± 6 | 86 ± 14 | – | O=C1N(c2ccccc2)c2ccccc2C1(Cc1ccncc1)Cc1ccncc1 [Linopirdine, 3,3-bis(4-pyridinylmethyl)-1-phenylindolin-2-one]
2 | – | – | – | 0.71 ± 0.07 | > 100 | 43 ± 7 | > 100 | O=C1c2ccccc2C(Cc2ccncc2)(Cc2ccncc2)c2ccccc21 [XE991, 10,10-bis(4-pyridinylmethyl)-9(10H)-anthracenone]
